Patent publication US5817668A, “S-heteroatom containing alkyl substituted-3-oxo-pyrido[1,2-A]benzimidozole-4-carboxamide derivatives useful in treating central nervous system disorders” (Ortho Pharmaceutical Corporation, priority 1997, dated 1998)
Like-named read-outs stand apart in the source and are kept apart here.

What was measured:
[1] = target: benzodiazepine site of the GABA-A receptor; experiment: Benzodiazepine receptor binding: inhibition of 3H-flunitrazepam binding to prepared receptor membranes; details: read-out: GABAA Receptor Binding IC50; 3H-flunitrazepam ca. 3 nM, 10-20 min, 25 °C; >10,000 = not active
[2] = system: behavior suppressed by punishment (conflict) in male rats; experiment: Suppression of anxiety in adult male rat (punished-licking conflict test, Vogel); format: in vivo; details: minimum effective dose, >10 = active dose not yet determined; for minimal effective dose: Rattus norvegicus
Description: Male rats were deprived of water for 48 hours and were deprived of food for 24 hours prior to testing. After the first 24 hours of water deprivation, they were placed in the conflict chamber for a training period; wherein, they were allowed 200 unpunished licks from a bottle containing tap water. The experiment was run the next day. At the expected time of peak activity, the animals were placed in the chamber and allowed access to tap water. […] Their first lick initiates a 3-min test session. Subsequently,every 20th lick was punished by a 0.2-s shock delivered via the stainless-steel drinking-tube.
The Wilcoxon rank-sum test (Mann-Whitney U-test) was used to test for an increase (p<0.05, 1-tailed) in the median number of shocks in drug-treatedgroups, compared to a concurrently run vehicle-treated group. The biological assay is considered to be valid if the effects of a known anxiolytic (positive control) are detected, within the same experiment.

[3] = system: metrazol-induced convulsions in male CD1 mice; experiment: Suppression of metrazol-induced clonic convulsions in adult male mice; format: in vivo, mouse (male CD1); details: Mus musculus, 0.5 h, >30 = active dose not determined
Description: […] Water was not withheld except during the period of observations. […] Metrazol was dissolved in 0.9% sodium chloride solution, and its dose volume was 10 ml/kg. Animals were housed individually for observation of clonic convulsions, tonic convulsions and death for a period of 30 min. […] The biological assay was considered to be valid if the effects of a known anticonvulsant (positive control) were detected, within the same experiment. Activity was reported as percent reduction of clonic convulsions from the vehicle group.

[4] = ip, ip, read-out: Mouse Metrazol ED50, ip
[5] = po, po, read-out: Mouse Metrazol ED50, po
[6] = ip, read-out: Rat Conflict MED, ip
[7] = po, read-out: Rat Conflict MED, po

| SMILES | IC50 [1] [nM] | Rat Conflict MED, po ([2]; po) [mg/kg] | ED50 [3, 4] [mg/kg] | ED50 [3, 5] [mg/kg] | minimal effective dose [2, 6] [mg/kg] | minimal effective dose [2, 7] [mg/kg] |
| --- | --- | --- | --- | --- | --- | --- |
| O=C1CCN2C(=C1C(=O)Nc1ccccc1F)N(CCNC(=O)c1ccccc1)c1cc(F)ccc12 [Compound 46] | 6.1 | – | – | – | – | – |
| COCCN1C2=C(C(=O)Nc3nccs3)C(=O)CCN2c2ccc(F)cc21 [Compound 140] | – | > 10 | – | – | – | – |
| C#CCN1C2=C(C(=O)Nc3ccccc3F)C(=O)CCN2c2ccc(F)cc21 [Compound 85] | 0.072 | – | 0.006 | 1 | < 10 | 1 |
| CN1CCCC(N2C3=C(C(=O)Nc4c(F)cccc4F)C(=O)CCN3c3ccc(F)cc32)C1 (centres unmarked) [Compound 86] | 26.3 | – | > 10 | > 30 | 10 | > 10 |
| CC(=O)OCCN1C2=C(C(=O)Nc3ccccc3F)C(=O)CCN2c2ccc(F)cc21 [Compound 119, 7-Fluoro-1,2-dihydro-5-(2-acetoxyethyl)-3-oxo-N-(2-fluorophenyl)pyrido[1,2-a]benzimidazole-4-carboxamide] | 0.25 | – | – | – | – | – |
| COCCN1C2=C(C(=O)Nc3nccs3)C(=O)CCN2c2ccc(F)cc21 [Compound 155] | – | 3 | – | – | – | – |
| C[S+]([O-])CCN1C2=C(C(=O)Nc3ccccc3F)C(=O)CCN2c2ccc(F)cc21 (centres unmarked) [Compound 183, 7-Fluoro-1,2-dihydro-5-[2-(methylsulfoxy)ethyl]-3-oxo-N-(2-fluorophenyl)pyrido[1,2-a]benzimidazole-4-carboxamide] | 6.19 | – | – | – | – | – |

Continued, in another order:

| IC50 [1] [nM] | SMILES | Rat Conflict MED, po ([2]; po) [mg/kg] | ED50 [3, 4] [mg/kg] | ED50 [3, 5] [mg/kg] | minimal effective dose [2, 6] [mg/kg] | minimal effective dose [2, 7] [mg/kg] |
| --- | --- | --- | --- | --- | --- | --- |
| 16 | O=C1CCN2C(=C1C(=O)Nc1ccccc1F)N(CC(O)CO)c1cc(F)ccc12 (centres unmarked) [Compound 162, 7-Fluoro-1,2-dihydro-5-[2,3-dihydroxypropyl]-3-oxo-N-(2-fluorophenyl)pyrido[1,2-a]benzimidazole-4-carboxamide] | – | – | – | – | – |
| 8.55 | COc1ccc(NC(=O)C2=C3N(CC#N)c4cc(F)ccc4N3CCC2=O)cc1 [Compound 82] | – | < 1 | > 30 | – | > 10 |
| 126 | CCOCN1C2=C(C(=O)Nc3ccccc3F)C(=O)CCN2c2c1ccc(F)c2F [Compound 128] | – | ≥ 1 | > 30 | – | > 10 |
| 0.48 | CCOCCN1C2=C(C(=O)Nc3ccccc3F)C(=O)CCN2c2ccc(F)cc21 [Compound 160] | – | < 1 | 0.3 | < 10 | 1 |
